Measurements taken from patent US9862684B2, “Modulation of K2P channels” (The Regents of the University of California, priority 2013, dated 2018).

How the values were obtained:
K2P10.1 (TREK-2) = target: T1, K2P10.1 (TREK-2) (Mus musculus, UniProt Q8BUW1); assay: Two-electrode voltage clamp, Xenopus oocytes expressing K2P10.1 (TREK-2); format: cell-based, Murine
T1 construct: expressed in transfected cells; host or cells: Xenopus oocytes
T1 sequence (Q8BUW1 1-535): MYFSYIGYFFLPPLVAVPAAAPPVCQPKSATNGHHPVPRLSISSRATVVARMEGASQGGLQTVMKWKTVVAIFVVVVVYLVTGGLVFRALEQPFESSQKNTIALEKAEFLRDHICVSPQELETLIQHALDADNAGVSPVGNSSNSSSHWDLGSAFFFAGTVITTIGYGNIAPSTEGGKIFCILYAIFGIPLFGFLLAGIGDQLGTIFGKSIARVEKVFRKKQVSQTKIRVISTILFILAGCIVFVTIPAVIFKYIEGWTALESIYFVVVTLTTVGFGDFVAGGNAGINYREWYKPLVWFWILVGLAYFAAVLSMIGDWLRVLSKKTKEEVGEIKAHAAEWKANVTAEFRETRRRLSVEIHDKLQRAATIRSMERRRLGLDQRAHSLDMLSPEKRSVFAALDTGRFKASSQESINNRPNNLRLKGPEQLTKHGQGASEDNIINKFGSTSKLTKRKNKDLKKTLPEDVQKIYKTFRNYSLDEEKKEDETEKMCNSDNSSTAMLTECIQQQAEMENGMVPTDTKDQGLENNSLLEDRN
Experimental: (§1) FIG. 7 ML67-33 is a selective activator of heat- and mechanosensitive K2P channels. a-f, Exemplar I-V curves showing the effect of ML67-33 on a, K2P10.1 (TREK-2), b, K2P4.1 (TRAAK), c, K2P3.1 (TASK-1), d, K2P9.1 (TASK-3), e, K2P5.1 (TASK-2), and f, K2P18.1 (TRESK) measured in Xenopus oocytes in 2 mM [K^+]o pH 7.4. Currents were elicited by a voltage ramp from −150 to 50 mV, from a holding potential of −80 mV. g, Quantification of the effect of ML67-33 on the indicated channels. Data (mean±s.e., n≧6, N≧2) was normalized to basal channel activity and fitted to the Hill equation. […] Error bars indicate s.e., n≧6, N≧2.
(§2) Murine K2P channels were cloned into pGEMHE/pMO {Bagriantsev, 2011}, IRES-GFP (Invitrogen), or pYES2-MET25 (high copy 2μ, URA3) {Minor, 1999} for expression in oocytes, HEK-293T cells, and yeast, respectively, using standard molecular biology procedures, and verified by DNA sequencing.
Two-electrode voltage clamp recordings were performed from defolliculated stage V-VI Xenopus oocytes 24-48 hours after injection with 0.015-6.0 ng cRNA, using microelectrodes (0.3-3.0 MΩ) filled with 3M KCl. Data was acquired using the GeneClamp 500B (MDS Analytical Technologies) amplifier controlled by the pClamp software (Molecular Devices), and digitized at 1 kHz using Digidata 1332A (MDS Analytical Technologies). Recording solutions (mM): 2K (96 NaCl, 2 KCl, 1.8 CaCl2, 2 MgCl2), 90K (90 KCl, 8 NaCl, 1.8 CaCl2, 2 MgCl2), were buffered 5 mM HEPES pH 7.4. For K2P recordings, currents we elicited by a 1 second long ramp from −150 to +50 mV from a holding potential of −80 mV (2K), or −100 to +50 mV from a holding potential of 0 mV (90K). For KCNQ2 recordings, currents were elicited by a step protocol from −120 to 60 mV, in 20 mV increments, from a holding potential of −80 mV. Patch-clamp recordings from HEK-293T cells were performed using microelectrodes (2-3 MΩ) filled with 1M KCl. Data was acquired using the Axopatch 200B amplifier controlled by pClamp software, and digitized at 1 kHz using Digidata 1332A. Recording solutions (mM): intracellular (145 KCl, 5 EGTA, 3 MgCl2,) extracellular (150 NaCl, 5 KCl, 3 MgCl2, 1 CaCl2) were buffered with 5 mM HEPES pH 7.2 and 7.4, respectively. Currents were elicited by a 1 second long ramp from −150 to +50 mV from a holding potential of −80 mV. Data were fitted with a modified Hill's equation: I=Imin+(Imax−Imin)/(1+10^((Log EC50−Log [C])*H)), where Imax and Imin are maximal and minimal current values, respectively, EC50 is a half-maximal effective concentration of the compound, and H is the Hill coefficient.
There are six K2P subgroups {Noel, 2011} (FIG. 11). […]

K2P18.1 (TRESK) = target: T2, K2P18.1 (TRESK) (Mus musculus, UniProt Q6VV64); assay: Two-electrode voltage clamp, Xenopus oocytes expressing K2P18.1 (TRESK); format: cell-based, Murine
T2 construct: expressed in transfected cells; host or cells: Xenopus oocytes
T2 sequence (Q6VV64 1-394): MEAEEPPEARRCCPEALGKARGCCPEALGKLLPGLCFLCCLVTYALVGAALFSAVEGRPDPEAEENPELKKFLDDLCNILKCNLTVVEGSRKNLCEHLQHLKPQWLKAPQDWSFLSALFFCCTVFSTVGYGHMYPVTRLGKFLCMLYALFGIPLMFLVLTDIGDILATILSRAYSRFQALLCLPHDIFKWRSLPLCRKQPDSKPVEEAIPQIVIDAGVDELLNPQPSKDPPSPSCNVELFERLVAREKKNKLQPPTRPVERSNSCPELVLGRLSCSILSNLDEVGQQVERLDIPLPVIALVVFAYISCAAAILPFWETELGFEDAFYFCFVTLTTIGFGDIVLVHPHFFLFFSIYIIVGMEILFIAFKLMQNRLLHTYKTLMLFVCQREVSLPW
Experimental: as §1, §2
Two-electrode voltage clamp recordings were performed from defolliculated stage V-VI Xenopus oocytes 24-48 hours after injection with 0.015-6.0 ng cRNA, using microelectrodes (0.3-3.0 MΩ) filled with 3M KCl. Data was acquired using the GeneClamp 500B (MDS Analytical Technologies) amplifier controlled by the pClamp software (Molecular Devices), and digitized at 1 kHz using Digidata 1332A (MDS Analytical Technologies). […]

**Q.** Which results are given for `CC1(C)c2cc(Cl)ccc2N(CCc2nnn[nH]2)c2ccc(Cl)cc21` [ML67-33, 2,7-dichloro-9,9-dimethyl-10-[2-(1H-tetrazol-5-yl)ethyl]acridine]?
**A.** Emax (fold) (K2P10.1 (TREK-2); FIG. 7 legend: at 100 μM): 11.4±1.8 fold; EC50 (K2P10.1 (TREK-2); Xenopus oocytes, 2 mM [K+]o pH 7.4): 30.2 ± 1.4 µM; functional effect (in words) (K2P18.1 (TRESK); applied at 100 μM): little or no functional effects; Emax (fold) (K2P18.1 (TRESK); at 100 μM (FIG. 7 legend), ** in Table 1): 0.9±0.1 fold
